Assay results as given in patent US12642270B2, “Substituted thiophene carboxamides, thiophene carboxylic acids and derivatives thereof” (Bayer Aktiengesellschaft, priority 2019, dated 2026).
Values belong to the molecule of their own block, whether it stands above or below them.

Experiment: Log P by HPLC on reversed phase columns (EEC directive 79/831 Annex V.A8)
Type: physicochemical
How it was run: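 Values come from retention times calibrated against alkan-2-ones (3–16 carbons) by linear interpolation, using reversed-phase LC-UV per EEC directive 79/831 Annex V.A8. Acetonitrile gradient 10–95% with 0.1% formic acid [a], 0.001 M ammonium acetate [b] or 0.1% phosphoric acid [c]; several values within one method separated by "+".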

[1] = method [a]: LC-UV, acidic range, 0.1% formic acid in water and acetonitrile
[2] = LogP method [a], compounds of formula (I), Table 1.1
[3] = method [a], compounds of formula (I), Table 1.1
[4] = method marker [a] given with each value, Table 1.1, compounds of formula (I)

Compound: O=C(NC1CCCCNC1=O)c1sc(Br)c(Br)c1Cl (stereo not drawn) [I.0957]
- LogP [1]: 2.99^[a]

Compound: CC(C)(C)OC(=O)C(NC(=O)c1sc(Br)c(Br)c1F)C1CC1 (racemic) [1.0921]
- LogP (method [a]): 4.89^[a]

Compound: COC(=O)C1(NC(=O)c2sc(Br)c(Br)c2F)CCOCC1 [1.0447]
- LogP [2]: 2.77^[a]

Compound: CCOC(=O)CNC(=O)c1sc(Br)c(C#N)c1Cl [1.0689]
- LogP (method marked [a]): 2.57^[a]

Compound: CCOC(=O)C(NC(=O)c1sc(Br)c(Cl)c1C)C(C)C (stereo not drawn) [1.0076]
- LogP [3]: 4.25^[a]

Compound: CCOC(=O)C(Cc1ccccc1)NC(=O)c1sc(Br)c(Br)c1C(F)F (stereo not drawn) [1.0364]
- LogP (method marked [a]): 4.34^[a]

Compound: CCOC(=O)C1(NC(=O)c2sc(Br)c(Br)c2C#N)CCC1 [1.0815]
- LogP (method [a]): 3.23^[a]

Compound: CNC(=O)CNC(=O)c1sc(Cl)c(Cl)c1Br [1.0738]
- LogP (method marked [a]): 2.08^[a]

Compound: CCOC(=O)C(COC)NC(=O)c1sc(C#N)c(Br)c1C (stereo not drawn) [1.0792]
- LogP (method [a]): 2.80^[a]

Compound: O=C(N[C@H]1CCSC1=O)c1sc(Cl)c(Br)c1Cl [I.0525]
- LogP [1]: 3.28^[a]

Compound: CCOC(=O)C(NC(=O)c1sc(Br)c(C(F)F)c1Br)C(C)C (stereo not drawn) [1.0502]
- LogP [2]: 4.21^[a]

Compound: CCOC(=O)C(NC(=O)c1cc(Br)c(C(F)(F)F)s1)C(C)C (stereo not drawn) [1.0719]
- LogP (method marked [a]): 4.18^[a]

Compound: N#CC1(NC(=O)c2sc(Br)c(Br)c2Cl)CCC1 [1.0873]
- LogP (method [a]): 3.35^[a]

Compound: CCOC(=O)C(CCSC)NC(=O)c1sc(C#N)c(Br)c1C (stereo not drawn) [1.0242]
- LogP (method [a]): 3.34^[a]

Compound: CCOC(=O)c1sc(Cl)c(C)c1Cl [II.073]
- LogP [1]: 4.59^[a]

Compound: O=C(NC(C(=O)OCc1ccccc1)C1CC1)c1sc(Cl)c(Cl)c1Br (stereo not drawn) [1.0617]
- LogP (method [a]): 5.10^[a]

Compound: O=C(O)c1cc(F)c(Br)s1 [II.039]
- LogP [1]: 1.02^[a]

Compound: CCCOC(=O)CNC(=O)c1sc(C#N)c(Br)c1C [1.0995]
- LogP [4]: 2.81^[a]

Compound: COC(=O)C(NC(=O)c1sc(Br)c(Br)c1Cl)C1CC1 (stereo not drawn) [1.0264]
- LogP (method [a]): 3.84^[a]

Compound: COC(=O)[C@H](CCSC)NC(=O)c1sc(Br)c(Br)c1Cl [1.0750]
- LogP (method marked [a]): 4.04^[a]

Compound: CCOC(=O)C(CC(C)C)NC(=O)c1sc(Br)c(Br)c1C(F)(F)F (stereo not drawn) [1.0375]
- LogP (method marked [a]): 4.38^[a]

Compound: O=C(NC1(C(=O)O)CC1)c1sc(Cl)c(Br)c1Cl [1.0324]
- LogP (method marked [a]): 2.41^[a]

Compound: Cc1c(C(=O)NCC#N)sc(Br)c1Cl [1.0111]
- LogP [3]: 2.54^[a]

Compound: CCOC(=O)C(NC(=O)c1sc(Cl)c(Br)c1C#N)C(C)C (stereo not drawn) [1.0609]
- LogP (method [a]): 3.81^[a]

Compound: CCOC(=O)C(COC)NC(=O)c1sc(Cl)c(Cl)c1Br (stereo not drawn) [1.0777]
- LogP (method marked [a]): 3.94^[a]

Compound: CCOC(=O)C1(NC(=O)c2sc(C#N)c(Cl)c2Br)CC1 [1.0666]
- LogP (method marked [a]): 2.76^[a]

Compound: CCOC(=O)C(NC(=O)c1sc(C#N)c(Br)c1C)C(=O)OCC [1.0773]
- LogP (method marked [a]): 3.23^[a]

Compound: CN(C)C(=S)CNC(=O)c1sc(Br)c(Br)c1F [1.1002]
- LogP [4]: 3.19^[a]

Compound: N#Cc1c(Cl)sc(C(=O)O)c1Cl [II.002]
- LogP [1]: 1.59^[a]

Compound: Cc1c(C(=O)NC2CCOC2=O)sc(Br)c1Cl (stereo not drawn) [I.0825]
- LogP [1]: 2.45^[a]

Compound: CC(C)(NC(=O)c1sc(Br)c(Br)c1F)C(=O)O [1.0523]
- LogP [2]: 2.54^[a]

Compound: CCOC(=O)CNC(=O)c1sc(C#N)c(Br)c1Br [1.0739]
- LogP (method marked [a]): 2.75^[a]

Compound: CCOC(=O)C(CCSC)NC(=O)c1cc(C#N)c(Br)s1 (stereo not drawn) [1.0404]
- LogP [2]: 3.03^[a]

Further lines, results first:

- LogP (method [a]): 3.46^[a]
Compound: CCOC(=O)C(COC)NC(=O)c1sc(Br)c(Br)c1F (stereo not drawn) [1.0135]

- LogP (method [a]): 3.84^[a]
Compound: COC(=O)C(NC(=O)c1sc(Cl)c(Cl)c1Br)C1CC1 (stereo not drawn) [1.0263]

- LogP [2]: 1.53^[a]
Compound: O=C(NC1(C(=O)NC2(C(=O)O)CC2)CC1)c1cc(I)c(I)s1 [1.0478]

- LogP [2]: 3.91^[a]
Compound: CCOC(=O)C(C)NC(=O)c1sc(Cl)c(Br)c1Br (stereo not drawn) [1.0482]

- chromatographic logP (reversed phase HPLC columns, value in preparation example, method not marked): 2.97
Compound: CCOC(=O)CNC(=O)c1sc(Br)c(Br)c1F [I.0449, ethyl N-[(4,5-dibromo-3-fluoro-2-thienyl)carbonyl]glycinate]

- LogP (method [a]): 4.99^[a]
Compound: CCOC(=O)C(NC(=S)c1sc(Br)c(Br)c1F)C1CC1 (stereo not drawn) [1.0865]

- LogP [4]: 3.76^[a]
Compound: CCCOC(=O)CNC(=O)c1sc(Br)c(Br)c1Cl [1.0983]

- LogP [1]: 3.09^[a]
Compound: COC(=O)C(Cc1ccccc1)NC(=O)C(CC(=O)O)NC(=O)c1sc(Br)c(Cl)c1C (stereo not drawn) [I.0339]

- LogP (method marked [a]): 4.63^[a]
Compound: CCOC(=O)C(CC(C)C)NC(=O)c1sc(Cl)c(Cl)c1F (stereo not drawn) [1.0350]

- LogP (method marked [a]): 3.94^[a]
Compound: COC(=O)C(NC(=O)c1sc(Br)c(Cl)c1C)(C1CC1)C1CC1 [1.0275]

- LogP (method [a]): 4.15^[a]
Compound: CCOC(=O)C[C@H](NC(=O)c1sc(Br)c(Br)c1Cl)C(=O)OCC [1.0545]

- LogP (method [a]): 3.47^[a]
Compound: CCOC(=O)C1(NC(=O)c2sc(Cl)c(Br)c2Cl)CC1 [1.0180]

- LogP (method [a]): 3.33^[a]
Compound: COC(=O)C[C@H](NC(=O)c1sc(Cl)c(Cl)c1Br)C(=O)OC [1.0548]

- LogP (method [a]): 2.26^[a]
Compound: CCOC(=O)[C@H](CO)NC(=O)c1sc(C#N)c(Cl)c1Cl [1.0831]

- LogP (method [a]): 3.42^[a]
Compound: CCOC(=O)C(COC)NC(=O)c1sc(Br)c(Cl)c1C (stereo not drawn) [1.0138]

- LogP [2]: 1.88^[a]
Compound: NC(=O)C1(NC(=O)C2(NC(=O)c3cc(I)c(I)s3)CC2)CC1 [1.0470]

- LogP (method [a]): 3.75^[a]
Compound: CCOC(=O)C1(NC(=O)c2sc(Cl)c(Br)c2F)CCC1 [1.0642]

- LogP (method [a]): 4.89^[a]
Compound: CC(C)OC(=O)C(NC(=O)c1sc(Cl)c(Cl)c1Br)C1CC1 (stereo not drawn) [1.0904]

- LogP (method [a]): 2.70^[a]
Compound: COC(=O)C1(NC(=O)c2sc(Br)c(C(F)F)c2Br)CC1 [1.0649]

- LogP [4]: 2.98^[a]
Compound: CCCOC(=O)C1(NC(=O)c2sc(C#N)c(Br)c2C)CC1 [1.0966]

- LogP [3]: 3.33^[a]
Compound: COC(=O)C(CC(F)F)NC(=O)c1sc(I)c(Br)c1C (stereo not drawn) [1.0101]

- LogP (method [a]): 4.47^[a]
Compound: CCOC(=O)[C@@H](NC(=O)c1sc(Br)c(Br)c1F)C(C)C [1.0151]

- LogP [3]: 3.65^[a]
Compound: N#CC(NC(=O)c1sc(Br)c(Br)c1F)c1ccccc1 (stereo not drawn) [1.0117]

- LogP (method marked [a]): 2.03^[a]
Compound: COC(=O)CNC(=O)c1sc(C#N)c(Cl)c1C [1.0302]

- LogP (method [a]): 4.50^[a]
Compound: CCOC(=O)C(Cc1ccccc1)NC(=O)c1sc(Cl)c(Br)c1F (stereo not drawn) [1.0640]

- LogP [2]: 4.08^[a]
Compound: CCOC(=O)C(Cc1ccccc1)NC(=O)c1sc(Br)c(C#N)c1Br (stereo not drawn) [1.0412]

- LogP (method [a]): 5.08^[a]
Compound: O=C(NC(C(=O)OC1CCC1)C1CC1)c1sc(Cl)c(Cl)c1Br (stereo not drawn) [1.0903]

- LogP (method [a]): 4.17^[a]
Compound: O=C(O)C(Cc1ccccc1)NC(=S)c1sc(Br)c(Br)c1F (stereo not drawn) [1.0876]

- LogP [3]: 3.60^[a]
Compound: COC(=O)C(CC(F)F)NC(=O)c1sc(Cl)c(Cl)c1Br (stereo not drawn) [1.0086]

- LogP (method [a]): 2.25^[a]
Compound: NC(=S)CNC(=O)c1sc(Br)c(Br)c1F [1.0896]

- LogP [3]: 3.23^[a]
Compound: CCOC(=O)CCNC(=O)c1sc(Br)c(I)c1C [1.0088]

- LogP (method marked [a]): 3.91^[a]
Compound: COC(=O)C1(NC(=S)c2sc(Br)c(Br)c2F)CC1 [1.0328]

- LogP (method [a]): 3.69^[a]
Compound: COC(=O)C1(NC(=O)c2sc(Br)c(Br)c2Cl)CC(F)(F)C1 [1.0624]

- LogP (method [a]): 4.30^[a]
Compound: CCCOC(=O)C1(NC(=O)c2sc(Br)c(Br)c2F)CCC1 [1.0928]

- LogP (method marked [a]): 2.87^[a]
Compound: COC(=O)C1(NC(=O)c2cc(Br)c(C(F)(F)F)s2)CC1 [1.0717]

- LogP [1]: 2.63^[a]
Compound: COC(=O)c1cc(Br)c(C#N)s1 [II.052]

- LogP (method [a]): 3.37^[a]
Compound: COC(=O)C1(NC(=O)c2sc(Br)c(Br)c2F)CC(F)(F)C1 [1.0622]

- LogP [2]: 3.80^[a]
Compound: CCOC(=O)C(CC(C)C)NC(=O)c1cc(F)c(Br)s1 (stereo not drawn) [1.0435]

- LogP (method [a]): 3.59^[a]
Compound: CCOC(=O)C(CCSC)NC(=O)c1cc(Cl)c(Br)s1 (stereo not drawn) [1.0237]
